Data reported in ChEMBL document CHEMBL1201862, “PubChem BioAssay data set” (2004).
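Results reflect a 48-hour exposure of cells in 96-well plates to compound at five concentrations. GI50: concentration for 50% inhibition of growth.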 Activity calls are given as the source filed them. Rule as the data show it: active = GI50 up to about 1.1 µM and inactive = higher.

Assays:
Assay in all cases: growth of human tumour cells (NCI), 48 h
SK-MEL-28 = system: SK-MEL-28
HOP-92 = system: HOP-92
UACC-62 = system: UACC-62
HCC 2998 = system: HCC 2998
PC-3 = system: PC-3
MDA-N = system: MDA-N
UO-31 = system: UO-31
M14 = system: M14
SR = system: SR
CAKI-1 = system: CAKI-1
KM12 = system: KM12
U-251 = system: U-251
MCF7 = system: MCF7
TK-10 = system: TK-10
Malme-3M = system: Malme-3M
OVCAR-5 = system: OVCAR-5
ACHN = system: ACHN
SK-OV-3 = system: SK-OV-3
SNB-75 = system: SNB-75
BT-549 = system: BT-549

SMILES	GI50 (SK-MEL-28)	GI50 (HOP-92)	GI50 (UACC-62)	GI50 (HCC 2998)	GI50 (PC-3)	GI50 (MDA-N)	GI50 (UO-31)	GI50 (M14)	GI50 (SR)	GI50 (CAKI-1)	GI50 (KM12)	GI50 (U-251)	GI50 (MCF7)	GI50 (TK-10)	GI50 (Malme-3M)	GI50 (OVCAR-5)	GI50 (ACHN)	GI50 (SK-OV-3)	GI50 (SNB-75)	GI50 (BT-549)
Cc1c(Cl)c(=O)oc2cc(OCC(O)COC(C)C)ccc12 (configuration not stated)	> 100 µM (inactive)	35 µM (inactive)	74.6 µM (inactive)	16.8 µM (inactive)	43.5 µM (inactive)	48.1 µM (inactive)	40.3 µM (inactive)	32.2 µM (inactive)	31.9 µM (inactive)	> 10 µM (inactive)	50.5 µM (inactive)	44.9 µM (inactive)	22 µM (inactive)	35.2 µM (inactive)	20 µM (inactive)	> 100 µM (inactive)	44.1 µM (inactive)	> 100 µM (inactive)		
CC1=C/C(=N\N(C)C)C(C(O)(C(F)(F)F)C(F)(F)F)C(C)(C)C1 (configuration not stated)	> 100 µM (inactive)	0.169 µM (active)	> 100 µM (inactive)	> 100 µM (inactive)	73.6 µM (inactive)	> 100 µM (inactive)	> 100 µM (inactive)	> 100 µM (inactive)	> 100 µM (inactive)	> 100 µM (inactive)	> 100 µM (inactive)	> 100 µM (inactive)	> 100 µM (inactive)	> 100 µM (inactive)	97.1 µM (inactive)	> 100 µM (inactive)	> 100 µM (inactive)		27.1 µM (inactive)	
CCNC(=S)Nc1c(C#N)c2n(c1C(=O)OCC)CCCCC2	> 100 µM (inactive)	42.3 µM (inactive)	> 100 µM (inactive)	> 100 µM (inactive)	> 100 µM (inactive)		> 100 µM (inactive)	> 100 µM (inactive)	> 100 µM (inactive)	> 100 µM (inactive)	> 100 µM (inactive)	> 100 µM (inactive)	> 100 µM (inactive)	> 100 µM (inactive)			> 100 µM (inactive)	> 100 µM (inactive)	> 100 µM (inactive)	30.9 µM (inactive)
CC1=NN(c2nc(N)nc(COCc3nc(N)nc(N4N=C(C)CC4(C)C)n3)n2)C(C)(C)C1	> 100 µM (inactive)	> 100 µM (inactive)	> 100 µM (inactive)	> 100 µM (inactive)	> 100 µM (inactive)		> 100 µM (inactive)	> 100 µM (inactive)	> 100 µM (inactive)	> 100 µM (inactive)	> 100 µM (inactive)	> 100 µM (inactive)	> 100 µM (inactive)	> 100 µM (inactive)		> 100 µM (inactive)	> 100 µM (inactive)	> 100 µM (inactive)	> 100 µM (inactive)	> 100 µM (inactive)
CC(C)(C)OC(=O)CC(NC(=O)OC(C)(C)C)C(=O)N[C@@H]1CCCC[C@H]1C(=O)OCc1ccccc1 (some centres not stated)	> 100 µM (inactive)	53.2 µM (inactive)	16.2 µM (inactive)	20.6 µM (inactive)	21.4 µM (inactive)	32.1 µM (inactive)	24.2 µM (inactive)	36.1 µM (inactive)	29.2 µM (inactive)	38.4 µM (inactive)	30.1 µM (inactive)	19.5 µM (inactive)	26.9 µM (inactive)	17.8 µM (inactive)	33.7 µM (inactive)	26.2 µM (inactive)	32.7 µM (inactive)	19.2 µM (inactive)	23.1 µM (inactive)	
CSc1nc(-c2cc3c(c(SC)n2)CCC3)cc2c1CCC2	> 100 µM (inactive)		> 100 µM (inactive)	> 100 µM (inactive)	> 100 µM (inactive)	> 100 µM (inactive)	> 100 µM (inactive)	> 100 µM (inactive)		> 100 µM (inactive)	> 100 µM (inactive)	> 100 µM (inactive)		> 100 µM (inactive)		> 100 µM (inactive)	> 100 µM (inactive)	> 100 µM (inactive)	> 100 µM (inactive)	> 100 µM (inactive)
CC(=O)OC1CN2CCC1CC2 (configuration not stated) [ACECLIDINE]	> 100 µM (inactive)	> 100 µM (inactive)	> 100 µM (inactive)	> 100 µM (inactive)	> 100 µM (inactive)		> 100 µM (inactive)	> 100 µM (inactive)	> 100 µM (inactive)	> 100 µM (inactive)	> 100 µM (inactive)	> 100 µM (inactive)	> 100 µM (inactive)	> 100 µM (inactive)	> 100 µM (inactive)	> 100 µM (inactive)	> 100 µM (inactive)	> 100 µM (inactive)		> 100 µM (inactive)
CC(C)[C@]12O[C@H]1[C@@H]1O[C@@]13[C@@]1(C)CCC4=C(COC4=O)[C@@H]1C[C@@H]1O[C@@]13C2=O [TRIPTONIDE]	0.0126 µM (active)	0.0237 µM (active)	0.0122 µM (active)	0.029 µM (active)	0.0227 µM (active)	< 0.0113 µM (active)	0.0123 µM (active)	0.0173 µM (active)	< 0.01 µM (active)		0.824 µM (active)	0.101 µM (active)	< 0.01 µM (active)	0.0261 µM (active)	0.0191 µM (active)	0.0317 µM (active)	< 0.01 µM (active)	0.0397 µM (active)	0.0108 µM (active)	
